Measured values from BigSolDB 2.1.

Compound `C[C@H](O)[C@@H](O)[C@@H](O)[C@H](O)C=O` has a solubility (mole fraction) (in acetone, 288.15 K) of 0.00023, a solubility (mole fraction) (in acetone, 293.15 K) of 0.00025 and a solubility (mole fraction) (in acetone, 298.15 K) of 0.00028. It also gave a solubility (mole fraction) (in acetone, 303.15 K) of 0.00032, a solubility (mole fraction) (in acetone, 308.15 K) of 0.00038 and a solubility (mole fraction) (in ethanol, 288.15 K) of 0.00032. The solubility (mole fraction) (in ethanol, 293.15 K) was 0.00038, the solubility (mole fraction) (in ethanol, 298.15 K) was 0.00043 and the solubility (mole fraction) (in ethanol, 303.15 K) was 0.00057. It also gave a solubility (mole fraction) (in ethanol, 308.15 K) of 0.00071, a solubility (mole fraction) (in isopropanol, 288.15 K) of 0.00014 and a solubility (mole fraction) (in isopropanol, 293.15 K) of 0.00024. The solubility (mole fraction) (in isopropanol, 298.15 K) was 0.00032, the solubility (mole fraction) (in isopropanol, 303.15 K) was 0.00043 and the solubility (mole fraction) (in isopropanol, 308.15 K) was 0.00056. For the same compound, the solubility (mole fraction) (in methanol, 288.15 K) was 0.00216, the solubility (mole fraction) (in methanol, 293.15 K) was 0.00244 and the solubility (mole fraction) (in methanol, 298.15 K) was 0.00275. For the same compound, the solubility (mole fraction) (in methanol, 303.15 K) was 0.00307, the solubility (mole fraction) (in methanol, 308.15 K) was 0.00345 and the solubility (mole fraction) (in water, 288.15 K) was 0.0512. It also gave a solubility (mole fraction) (in water, 298.15 K) of 0.0979, a solubility (mole fraction) (in water, 303.15 K) of 0.129 and a solubility (mole fraction) (in water, 308.15 K) of 0.174.
